The NOAEL is the highest dose or exposure tested at which no adverse effect was seen.

This note sets out measurements from EPA's ToxValDB 9.5 (doi:10.2903/j.efsa.2016.4504).

Structures are written as SMILES.

For one series, the system named is Neomysis kadiakensis. Particulars: chronic/long-term; duration: 32 days; reproduction.
A further series has as its system Canidae. The conditions noted are these: chronic; oral; Dog Other; gross pathology.
A further series relates to Colinus virginianus. Particulars: oral; for LEC: diet.
The subject of a further series is Apis mellifera. Particulars: acute, mortality.
Another series relates to Folsomia candida. Particulars: chronic/long-term.
A further series has as its system Aphidius rhopalosiphi. The series can be described thus: LR50; higher = less toxic. Particulars: not reported; mortality.
[1] abbreviates: short-term, duration: 28 days, oral, diet, no effects.

`O=C(O)c1cc(C(F)(F)F)[nH]n1` [5-(Trifluoromethyl)-1H-pyrazole-3-carboxylic acid]: in the series on Rattus norvegicus (setting [1]), the NOAEL worked out at 1160 mg/kg-day.

As for `Cc1cc(C(F)(F)F)nn1CC(=O)N1CCC(c2nc(C3=NOC(c4c(F)cccc4F)C3)cs2)CC1` (configuration not stated) [Oxathiapiprolin], the LD50 was more than 5000 mg/kg in the series on Rattus norvegicus (acute, oral, mortality); more than 100 µg/piece with Apis mellifera (dermal); more than 40.3 µg/piece with Apis mellifera (oral, unspecified). Besides, the NOAEL in the series on Rattus norvegicus (reproduction developmental, other) was determined as 86.4 mg/kg-day; in the series with Canidae it was 13.6 mg/kg-day. Also, the LC50 in the series on Tagia sp. (acute) is more than 500 mg/kg; in the series on Cyprinodon variegatus (acute, duration: 96 hours, mortality), more than 0.65 µg/mL. The NOEC in the series with Tagia sp. (chronic/long-term) is 15.4 mg/kg; in the series on Cyprinodon variegatus (chronic/long-term, duration: 35 days, growth), 0.34 mg/L; in the series with Neomysis kadiakensis, 0.058 mg/L; in the series on Folsomia candida, 12.5 mg/kg. In addition, the LEL in the series with Colinus virginianus (acute) was more than 4250 mg/kg-day. The values for the LEC in the series on Colinus virginianus (chronic) and with Colinus virginianus (short-term) were 107 mg/kg-day and more than 1280 mg/kg-day, respectively. The LR50 in the series on Aphidius rhopalosiphi came to 116 g/ha.

In the case of `O=C(O)c1cc(C(F)(F)F)nn1[C@@H]1O[C@H](CO)[C@@H](O)[C@H](O)[C@H]1O`, the NOAEL in the series on Rattus norvegicus (setting [1]) amounted to 1160 mg/kg-day.
